# Source: patent US6815450B2, “Axon regeneration with PKC inhibitors” (Children's Medical Center Corporation, priority 2002, dated 2004)
# Where a name gives a salt, the structure may show the parent alone. Residues, ends and D or L forms follow the SMILES beside them. *: point of attachment. Cbz = O=C(OCc1ccccc1)*; CH2F = FC*
# Experiments:
# [1] = system: CGNs, DRG sensory neurons or NG108 cells on immobilized CNS myelin; assay: neurite outgrowth assay on CNS myelin substrate; type: cell-based, rat; conditions: for neurite outgrowth on immobilized CNS myelin: P7-9 rat CGNs and DRG sensory neurons; for neurite outgrowth on a CNS myelin substrate: 100 nM
# Experimental: (§1) To assess the functional relevance of the activation of the PI3K, MEK and PLC-g pathways, we utilized a standard neurite outgrowth assay in which NG108 cells or cerebellar granule neurons (CGN) from postnatal day 7-9 (P7-9) rats were grown on immobilized recombinant MAG or myelin (5-10, 16). Pharmacological inhibitors of the individual pathways—LY294002 and wortmannin for PI3K, U0126 for MEK, and U73122 for PLC-g, were then added to assess whether and to what extent these inhibitors could overcome the inhibitory activity of MAG or of myelin. […] As MEK has been previously shown to be required for axon growth induced by chronic exposure to neurotrophins (14), but not for growth cone turning in acute responses to NGF gradients (12), our results of abolishing MAG inhibition by an MEK inhibitor imply that the MEK pathway can be required only for neurite outgrowth in response to external cues.
# Based on the modulation of neurite outgrowth by modulating PKC activity, we predicted that inhibiting PKC activity might abolish or convert the inhibitory responses of neurons to MAG and other myelin-associated inhibitors. […] Based on existing evidence for the functional interactions between the PKA and PKC pathways (24), we conclude that both PKA and PKC act through parallel mechanisms in affecting neurite outgrowth. Although many PKC isoforms are expressed in the nervous system (25), our observations with phorbol ester and selective PKC inhibitors indicate the involvement of at least classical PKC isoforms whose activation is dependent on diacylglycerol (DAG) and calcium (24).
# Screening for compounds that allow neurite outgrowth from postnatal day 7-9 rat cerebellar granule neurons (CGNs) on CNS myelin substrates, we identified several broad-specificity PKC inhibitors from a small molecule libraries. Based on their structure and substrate requirements, PKC isoforms can be divided into three classes: the Ca++ and second messenger diacylglycerol (DAG)-sensitive conventional PKCs (-α, -β, and -γ), the Ca++-independent but DAG-dependent novel PKCs (-δ, -ε, -η, -θ, and -μ), and the Ca++- and DAG-insensitive atypical PKCs (-ζ and -λ). We first examined PKC inhibitors with a higher specificity for the conventional class of PKC isotypes for their ability to promote neurite outgrowth on CNS myelin. These inhibitors included Chelerythrine, Calphostin, Bisindoleylmaleimide I, and Gö6976. Dose response experiments (in the range of 10 nM to 10 uM) were carried out for each PKC inhibitor.
# [2] = system: P7 rat CGNs injected into the ventral funiculus of the adult rat spinal cord; assay: intra white matter transplantation of CGNs; type: in vivo; conditions: two weeks after transplantation; CGNs pretreated with 50 nM
# Experimental: We thus injected vehicle or Gö6976-treated P7 rat CGNs into the ventral funiculus of the adult rat spinal cord and examined neurite outgrowth of these transplanted neurons within the white matter that is largely composed of myelinated axons (26).
# 26. Intra white matter transplantation of CGNs. P7 CGN (50,000 cells/ml) were prelabeled with Cell Tracker CM-DiI (1 mM; Molecular Probes, Eugene, Oreg.), pretreated with PBS or 50 nM Gö6976, and microinjected at the level of T9 into the spinal cord ventral funiculus of adult Sprague-Dawley rats ([…]; N=3 for each group). Two pieces of 2 mm^3 gelfoam (Pharmacia & Upjohn, Kalamazoo, Mich.) soaked with PBS or 500 nM Gö6976 were placed onto the spinal dura where the penetration for cell injection occurred. Spinal cords (8 mm in length centered around the CGN injection site) were collected 2 weeks after surgery, and […] sagittal sections were made. DiI positive CGNs were examined with a fluorescent microscope (Omega XF-32 optical filter) in all sections of each cord to evaluate cell survival (27). Percentages of the neurite-bearing CGNs and CGNs with neurites longer than twice the soma length were quantified among 400 CGNs from a single […] of each cord that had the highest number of neurite-bearing CGNs.
# [3] = system: CGNs on MAG, Nogo-A and OMgp; assay: neurite outgrowth on individual myelin inhibitors; type: cell-based, rat
# Experimental: […] Based on their structure and substrate requirements, PKC isoforms can be divided into three classes: the Ca++ and second messenger diacylglycerol (DAG)-sensitive conventional PKCs (-α, -β, and -γ), the Ca++-independent but DAG-dependent novel PKCs (-δ, -ε, -η, -θ, and -μ), and the Ca++- and DAG-insensitive atypical PKCs (-ζ and -λ). […] These inhibitors included Chelerythrine, Calphostin, Bisindoleylmaleimide I, and Gö6976. Dose response experiments (in the range of 10 nM to 10 uM) were carried out for each PKC inhibitor.
# [4] = system: RhoA; assay: RhoA pull down assay in stimulated CGNs; type: cell-based, rat; conditions: cultured CGNs
# Text: We also assessed whether individual inhibitors affect endogenous PKC activity in treated neurons. […] To further confirm the role of PKC as a direct signaling mediator, we examined whether PKC activation by myelin inhibitors is dependent on NgR, a required receptor component for all of the three major myelin inhibitors. Thus, we used recombinant retroviruses to overexpress full-length or dominant negative NgR in CGNs and examined PKC activation in these transduced neurons by NgR ligands. […] An additional and critical signaling event shared by these inhibitory activities is the activation of the small GTPase RhoA. In order to determine the relationship between PKC and RhoA in these pathways, we stimulated cultured CGNs with MAG-Fc, AP-Nogo-66 or CSPG in the presence or absence of Gö6976 and examined the RhoA activation in these conditions by subjecting the resulting cell lysates to a RhoA pull down assay. […] Thus, conventional PKCs participate in transducing the inhibitory signals of both myelin inhibitors and CSPG from their specific cell surface receptors to activate RhoA.
# [5] = system: dorsal column ascending axons; assay: dorsal column axonal regeneration after C3-4 spinal dorsal hemisection; type: in vivo, adult rats
# Experimental: To assess the contribution of PKC mediated inhibitory effects on axon regeneration in vivo, we examined whether intrathecal infusion of Gö6976 affected regeneration of dorsal column ascending axons following spinal cord dorsal hemisection in adult rats. The hemisection was performed between the 3rd and 4th cervical spinal segments (C3-4) to a depth of 1.6 mm from the dorsal surface of the cord using a VibraKnife device that can be used to precisely control the lesion depth stereotaxically. To ensure that bilateral dorsal columns were completely transected, the lesion was advanced ventrally to the level of central cannel resulting in the transection of the entire dorsal half of the spinal cord. After the lesion, dura mater was sutured to restore cerebespinal fluid circulation and to prevent connective tissue invasion. Intrathecal delivery of Gö6976 (20 uM) or saline vesicle into the lesion site was achieved by constant infusion of the compound at a rate of 0.5 ul/hr for 14 days using an Alzet mini-osmotic pump (Model 2002). Five weeks after surgery, a narrow lesion gap through the dorsal half of the cord was clearly seen, confirming the completeness of dorsal column transection. […] Anatomical regeneration of injured dorsal column axons was assessed by anterograde tracing of Cholera toxin B subunit (CTB) which was injected into bilateral sciatic nerves and brachial plexuses.
# [6] = system: NG108 cells and CGNs transfected with Akt forms; assay: neurite outgrowth of Akt-transfected cells; type: cell-based, rat; parameters: effect on pro-growth effect of dominant negative Akt / cell survival / process extension of constitutively active Akt expressing NG108 cells: unit of the concentration uncertain
# Text: Having determined that the PI3K pathway is both activated and required in MAG signaling, we next examined whether Akt, a major downstream effector of PI3K in promoting cell survival (13, 17) and in determining the directionality of cell movement during chemotaxis (18), could account for the neurite inhibitory effect of MAG. To this end, we transfected NG108 cells with three versions of the Akt product—a constitutive active, a dominant negative and a wild type form (19), and compared their effects on neurite outgrowth.
# Since Akt has been thought of as a positive regulator of neurite outgrowth (21), our results with over-expression of constitutively active Akt came as a surprise. […] However, expression of dominant negative Akt led to the death of the transfected CGNs, consistent with a critical role of Akt in promoting cell survival (13, 17 and 19). Thus, the neurite outgrowth response elicited by Akt activation differs in a cell type specific manner.
# Growth cone responses can be converted from attraction to repulsion and vice versa through the modification of cellular cyclic nucleotide levels (12, 16, 23). […] As the PLCg pathway is activated by MAG and PKC is a major effector of PLCg (15), we assessed whether changes in PKC activity could affect the activity of different forms of Akt in NG-108 cells on the PDL substrate.
# [7] = system: NG108 cells or cerebellar granule neurons (CGN) on immobilized recombinant MAG; assay: neurite outgrowth assay on immobilized recombinant MAG; type: cell-based, rat
# Experimental: as §1
# [8] = biological target: protein kinase C; conditions: cited from earlier work
# [9] = system: NG108 cells and CGNs; assay: toxicity to cultured neuronal cells; type: cell-based, rat; conditions: even at 100 nM
# Experimental: as §1
# [10] = system: neurons on CSPG substrate; assay: neurite outgrowth on CSPG substrate; type: cell-based, rat
# Text: We examined whether PKC is involved in the inhibitory activity of CSPG, the other major inhibitory activity associated with glial scars in the adult CNS.
# [11] = system: CGNs, DRG sensory neurons or NG108 cells on immobilized CNS myelin; conditions: previously shown; cited from earlier work
# [12] = NG-108 cells, 10 (unit uncertain)
compound,measurement,setting,value
Cn1c2ccccc2c2c3c(c4c5ccccc5n(CCC#N)c4c21)CNC3=O [Gö6976],neurite outgrowth on immobilized CNS myelin,[1],profoundly affected neurite outgrowth by enhancing both the number of neurite-bearing cells and the length of neurites
same,neurite outgrowth on a CNS myelin substrate,[1]; P7-9 rat CGNs,profoundly mitigated outgrowth inhibition and promoted significant neurite outgrowth
same,donor neurons bearing neurites,[2],85%
same,neurite-bearing neurons with neurites longer than twice their soma diameters,[2],80%
same,"neurite outgrowth inhibition induced by MAG, Nogo-A and OMgp",[3],efficiently overcame neurite outgrowth inhibition
same,"MAG-Fc, AP-Nogo-66 and CSPG induced RhoA activation",[4],"blocked MAG-Fc, AP-Nogo-66 and CSPG induced RhoA activation in a dose dependent manner"
same,regeneration of CTB-labeled dorsal column axons across the lesion,"[5]; 20 uM intrathecal, 0.5 ul/hr for 14 days, five weeks after surgery",CTB-labeled axons were seen to cross the lesion gap and grow within the distal host spinal cord for a considerable distance
same,distance distal to the injury at which many regenerated axons ended,"[5]; 20 uM intrathecal, 0.5 ul/hr for 14 days, longest distance examined",7 mm
same,functional connections and recovery,[5]; subsequent studies,improves physiological and behavioral recovery
CC(NC(=O)C(NC(=O)OCc1ccccc1)C(C)C)C(=O)NC(CC(=O)O)C(=O)CF (stereo not drawn) [ZVAD] (Cbz-Val-Ala-Asp-CH2F; configuration not given here),cell survival,[6]; [12],enhancing cell survival
same,effect on pro-growth effect of dominant negative Akt,[6]; [12],did not affect the pro-growth effect of the dominant negative form of Akt
N#CC(=C(/N)Sc1ccccc1N)/C(C#N)=C(\N)Sc1ccccc1N [U0126],neurite outgrowth on the MAG substrate,[7],promoted neurite outgrowth
"CC1CNCCN1S(=O)(=O)c1cccc2cnccc12 (racemic) [compound 542, (+−)-1-(5-Isoquinolinesulfonyl)-2-methylpiperazine dihydrochloride]",IC50,[8],6 µM
calphostin C,neurite outgrowth on immobilized CNS myelin,[1],profoundly affected neurite outgrowth by enhancing both the number of neurite-bearing cells and the length of neurites
same,neurite outgrowth on a CNS myelin substrate,[1]; P7-9 rat CGNs,profoundly mitigated outgrowth inhibition and promoted significant neurite outgrowth
same,"neurite outgrowth inhibition induced by MAG, Nogo-A and OMgp",[3],efficiently overcame neurite outgrowth inhibition
"O=S(=O)(c1cccc2cnccc12)N1CCNCC1 [compound 543, 1-(5-Isoquinolinesulfonyl)piperazine]",IC50,[8],6 µM
"CCCCCCCCCCCCCC(=O)O[C@@H]1[C@@H](C)[C@@]2(O)[C@@H](C=C(CO)C[C@]3(O)C(=O)C(C)=C[C@@H]23)[C@@H]2C(C)(C)[C@]12OC(C)=O [PMA, phorbol myristate-13-acetate]",neurite outgrowth from untransfected cells and wild type Akt transfected cells,[6],did not result in significant alterations in neurite outgrowth
same,neurite outgrowth promoting activity of active Akt in CGNs,[6]; CGNs,abolished the neurite outgrowth promoting activity of active Akt
same,neurite outgrowth from NG108 cells expressing dominant negative Akt,"[6]; PDL substrate, 100 nM",resulted in inhibition of neurite outgrowth
bisindolylmaleimide [GFX],neurite outgrowth on immobilized CNS myelin,[1],profoundly affected neurite outgrowth by enhancing both the number of neurite-bearing cells and the length of neurites
same,neurite outgrowth from untransfected cells and wild type Akt transfected cells,[6],did not result in significant alterations in neurite outgrowth
same,process extension of constitutively active Akt expressing NG108 cells,"[6]; PDL substrate, 5 (unit uncertain)",the majority of constitutively active Akt expressing NG108 cells extended processes
Nc1ncnc2c1ncn2[C@@H]1O[C@@H]2COP(O)(=S)O[C@H]2[C@H]1O (some centres unmarked) [sp-cAMP],neurite outgrowth on immobilized CNS myelin,[1],stimulated neurite outgrowth
COc1ccc2c(c1)CC[C@@H]1[C@@H]2CC[C@]2(C)[C@@H](NCCCCCCN3C(=O)C=CC3=O)CC[C@@H]12 [U73122],toxicity to cells,[9],appeared toxic
Nc1nc2c(nc(Br)n2[C@@H]2O[C@@H]3COP(O)(=S)O[C@H]3[C@H]2O)c(=O)[nH]1 (some centres unmarked) [Rp-8-Br-cGMPS],neurite outgrowth on CNS myelin substrate,[1]; P7-9 rat CGNs,failed to overcome the inhibitory effects of CNS myelin
C[C@@H](N)[C@H]1CC[C@H](C(=O)Nc2ccncc2)CC1 [Y-27632],effect on CSPG substrate relative to chondroitinase ABC,[10],stronger effects than chondroitinase ABC
same,neurite outgrowth from neurons on CSPG substrate,[10],allowed the cultured neurons to overcome the inhibitory activity of CSPG
same,block of the inhibitory activity of CNS myelin and its components,[11],block the inhibitory activity of CNS myelin and its components
